Columns and labels:
human P450 1B1 [1] = target: T1, human P450 1B1 (Homo sapiens, UniProt Q16678); test: biochemical
T1 sequence (Q16678 1-543): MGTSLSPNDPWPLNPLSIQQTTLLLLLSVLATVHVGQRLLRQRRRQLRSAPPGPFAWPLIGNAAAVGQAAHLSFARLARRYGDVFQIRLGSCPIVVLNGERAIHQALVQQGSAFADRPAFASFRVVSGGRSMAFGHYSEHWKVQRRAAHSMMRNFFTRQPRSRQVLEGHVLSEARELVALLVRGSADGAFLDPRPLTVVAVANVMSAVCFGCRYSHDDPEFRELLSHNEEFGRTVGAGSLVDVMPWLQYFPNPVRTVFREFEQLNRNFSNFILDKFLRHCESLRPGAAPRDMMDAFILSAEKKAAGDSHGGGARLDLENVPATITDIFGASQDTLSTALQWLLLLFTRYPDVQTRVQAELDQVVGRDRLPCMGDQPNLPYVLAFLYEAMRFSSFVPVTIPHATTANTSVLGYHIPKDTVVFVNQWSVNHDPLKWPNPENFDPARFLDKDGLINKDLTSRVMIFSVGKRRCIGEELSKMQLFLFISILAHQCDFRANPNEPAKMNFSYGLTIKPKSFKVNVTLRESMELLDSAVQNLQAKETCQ

human P450 1B1 [2] = target: T1, human P450 1B1; test: Spectral binding titration; conditions: for Reverse Type I spectra ΔAmax/Ks (magnitude of spectral binding) / Reverse Type I spectra ΔAmax: purified P450 1B1 1.0 μM, ND = not detected at 100 μM; for Reverse Type I spectra ΔAmax: means ± SEs

Structure (SMILES)	IC50 (human P450 1B1 [1]) [nM]	spectral interaction with P450 1B1 (in words) (human P450 1B1 [2]; up to 100 μM)	Reverse Type I spectra ΔAmax/Ks (magnitude of spectral binding) (human P450 1B1 [2])	Reverse Type I spectra ΔAmax (human P450 1B1 [2])	Kd (human P450 1B1 [2]) [nM]	Reverse Type I spectra ΔAmax (human P450 1B1 [2]; listed as Flavone)
COc1ccccc1-c1cc(=O)c2ccc(O)c(O)c2o1 [2M78DHF, 2′-methoxy-7,8-dihydroxyflavone]	> 100000	did not show any detectable spectral interaction				
C#Cc1cc2ccc3cccc4ccc(c1)c2c34 [2EP, 2-ethynylpyrene]	38 ± 4		0.0209	0.071 ± 0.001		
COc1ccc(-c2cc(=O)c3c(O)cc(O)cc3o2)cc1OC [34DM57DHF, 3′,4′-dimethoxy-5,7-dihydroxyflavone]			0.0180	0.037 ± 0.002	2000 ± 300	
C#Cc1ccc2c(ccc3ccccc32)c1 [2EPh, 2-ethynylphenanthrene]	210 ± 30		0.0190	0.080 ± 0.004		
O=c1cc(-c2ccccc2)oc2c1ccc1ccccc12 [ANF, α-naphthoflavone, reference compound]			0.0061	0.073 ± 0.007		
C#CCOc1ccccc1-c1ccccc1OCC#C [22BDPE, 2,2-biphenyl dipropagyl ether]			0.0006	0.018 ± 0.001		
CC#Cc1ccc2ccc3ccccc3c2c1 [3PPh, 3-(1-propynyl)phenanthrene]	67 ± 8		0.0194	0.060 ± 0.006		
Oc1cc(O)cc(/C=C/c2ccc(O)c(O)c2)c1 [Piceatannol (Pice), Piceatannol, reference compound]	830 ± 140		0.0016	0.034 ± 0.001	21000 ± 1100	
CC#Cc1ccc2c(ccc3ccccc32)c1 [2PPh, 2-(1-propynyl)phenanthrene]	150 ± 20		0.0305	0.067 ± 0.005		
O=c1cc(-c2ccccc2)oc2ccc3ccccc3c12 [BNF, β–naphthoflavone, reference compound]	4.1 ± 0.4		0.0061	0.079 ± 0.009	13000 ± 1200	
O=c1cc(-c2ccccc2)oc2ccccc12 [flavone, reference compound]			0.0006	0.026 ± 0.002		0.026
C#CCOc1ccc(-c2ccccc2)cc1 [4BPE, 4-biphenyl propargyl ether]			0.0007	0.056 ± 0.010		
COc1ccccc1-c1cc(=O)c2ccccc2o1 [2MF, 2′-methoxyflavone]	320 ± 60		0.0013	0.070 ± 0.005	56000 ± 8000	
CC#Cc1cc2ccccc2c2ccccc12 [9PPh, 9-(1-propynyl)phenanthrene]	160 ± 30		0.0153	0.049 ± 0.002		
C#CCOCc1ccc(-c2ccccc2)cc1 [4BMPE, 4-biphenyl methyl propargyl ether]			0.0055	0.071 ± 0.002		
C#Cc1cc2cccc3ccc4cccc1c4c32 [4EP, 4-ethynylpyrene]	170 ± 30		0.0130	0.052 ± 0.004		
C#CCOc1ccccc1-c1ccccc1 [2BPE, 2-biphenyl propargyl ether]			0.0010	0.110 ± 0.009		
C#CCOCc1ccccc1-c1ccccc1 [2BMPE, 2-biphenyl methyl propargyl ether]			0.0009	0.130 ± 0.009		
C#Cc1ccc2ccc3cccc4ccc1c2c34 [1EP, 1-ethynylpyrene]	36 ± 5		0.0169	0.049 ± 0.005		
C#Cc1ccc2ccc3ccccc3c2c1 [3EPh, 3-ethynylphenanthrene]	160 ± 20		0.0237	0.071 ± 0.001		

— paper PMC3845904 (Chemical research in toxicology, 2009)
